The record followed here is ChEMBL document CHEMBL3507680, “University of Dundee, Gates Library screen for HepG2 cell viability”.

This series can be described thus: Human HepG2 cell viability assay in 384 well format. The series is classed as toxicity, cell-based. More on the design: dose 125 nL, time 70.5 hour; cytotoxicity at 70.5 h: concentration not given beside the values. Particulars: HepG2 cells, read-out: Inhibition.
In the case of `CCC(CC)c1cc(C(=O)N2CCCC(n3cncn3)C2)on1` (stereo not drawn), the cytotoxicity at 70.5 h was -1.84%.

Regarding `c1cnc(N2CCCC3(COCCN(c4nncs4)C3)C2)cn1` (stereo not drawn), the cytotoxicity at 70.5 h is -6.49%.

`O=C1CC(c2ccccc2)C2(CCN(Cc3ccncc3)CC2)N1` (stereo not drawn): the cytotoxicity at 70.5 h was -12.7%. As for `CN(C)C(=O)[C@@H]1C[C@@H]2CCN(Cc3ccncc3)C[C@@H]2O1`, the cytotoxicity at 70.5 h is -11.6%.

With `O=C(Nc1cccnc1)[C@@H]1C[C@H]2OCC[C@H]2N(Cc2nccs2)C1`, the cytotoxicity at 70.5 h is -6.06%.

With `Cc1ccc(CN2C[C@@H](C(=O)Nc3cccnc3)C[C@H]3OCC[C@H]32)o1`, the cytotoxicity at 70.5 h came out at 21.9%. For `CN(C)C(=O)COCC1CN(Cc2ccoc2)Cc2nnn(C)c21` (stereo not drawn) the value was 15%; for `Cn1nc(CN2CCCCC2)c2c1CN(C(=O)c1cccc(Cl)c1)C2`, 40.4%; for `O=C1COC2(CCN(C(=O)[C@H]3CCCO3)CC2)CN1Cc1ccccn1`, 17.4%. As to `Cn1nc(CN2CCCCC2)c2c1CN(C(=O)c1ccccc1)C2`, the cytotoxicity at 70.5 h stood at 23.3%. For `Cc1ccc(CNCC2Cn3nnc(-c4cnn(C)c4)c3CO2)o1` (stereo not drawn) the value was 15.6%; for `c1cc(-c2nnn3c2COC(CNCc2nccs2)C3)ccn1` (stereo not drawn), -0.24%. Regarding `Cn1cccc1C(=O)N1Cc2c(CN3CCCCC3)nn(C)c2C1`, the cytotoxicity at 70.5 h is 0.721%.

For `CS(=O)(=O)N1CCC(c2nnc3ccc(C(=O)NC4CCC4)cn23)C1` (stereo not drawn), the cytotoxicity at 70.5 h came to 12.6%. In the case of `COC[C@@H]1CC[C@H]2[C@H](CCN2S(=O)(=O)c2cccc(F)c2)O1`, the cytotoxicity at 70.5 h is -5.66%. On to `CC(C)NC(=O)CC1CC2(CCN(S(C)(=O)=O)CC2)c2ccccc21` (stereo not drawn), for which the cytotoxicity at 70.5 h was 3.25%.

Turning to `CCS(=O)(=O)N1CCC2(CC1)CC(CC(=O)NC1CC1)c1ccccc12` (stereo not drawn), the cytotoxicity at 70.5 h came to 17.6%. With `Cc1noc(C)c1CN1CCO[C@H]2CN(Cc3cccnc3)C[C@H]21`, the cytotoxicity at 70.5 h was -4.34%. For `O=C(c1cocn1)N1C[C@H]2CCC[C@@]2(COCc2cccnc2)C1` the value was -1.51%; for `COCCN1C[C@H]2[C@@H](C1)N(C(=O)CCc1ccccc1)CC[C@H]2OC`, -10.6%. Consider `COCCN1C[C@H]2[C@@H](C1)N(C(=O)c1cccc(OC)c1)CC[C@H]2OC`, for which the cytotoxicity at 70.5 h was -2.65%. As to `CN1CC(=O)N(c2ccsc2)CC12CCN(C(=O)c1ccc[nH]1)C2` (stereo not drawn), the cytotoxicity at 70.5 h came out at 8.85%. With `COCC1CN(Cc2ccccn2)Cc2nn(C)cc21` (stereo not drawn), the cytotoxicity at 70.5 h was -7.74%. For `COC(=O)C1CCN(CC2(c3ccc(C)cn3)CCNCC2)CC1` the value was -2.35%. `CCN(C(C)=O)C1CCN(c2nccc(CCC(F)(F)F)n2)C1` (stereo not drawn): the cytotoxicity at 70.5 h is -22.6%.

With `Cc1ccc(-n2nc(C)c3c2NC(=O)CC3c2cnc(N)s2)cc1` (stereo not drawn), the cytotoxicity at 70.5 h was -0.62%. Turning to `Cc1c(C(=O)N2CCCC(C(=O)c3nccn3C)C2)c[nH]c(=O)c1C#N` (stereo not drawn), the cytotoxicity at 70.5 h is -7.06%.

Turning to `CCc1c(C(=O)N2CCN(C)[C@@H]3CS(=O)(=O)C[C@@H]32)[nH]c2ccccc12`, the cytotoxicity at 70.5 h was -0.756%. `O=C(N[C@@H]1CCN(C(=O)C2CCOCC2)C[C@H]1O)c1ccccn1`: the cytotoxicity at 70.5 h was -4.74%.

Turning to `c1csc(CCNc2nc(-c3ccncc3)nc3c2CCNCC3)c1`, the cytotoxicity at 70.5 h was -6.1%. Turning to `O=C(CCn1cccn1)N1CC[C@@H](c2ccc3ccccc3c2)[C@H](O)C1`, the cytotoxicity at 70.5 h amounted to 3.07%.

Take `Cc1ncc(CN2CCC3(CCCN(CC4CCC4)C3)C2)cn1` (stereo not drawn): the cytotoxicity at 70.5 h is -4.13%.

For the compound `CN1CCN(Cc2nnc(C3CCN(C(CO)CO)CC3)n2C)CC1`, the cytotoxicity at 70.5 h was -23.4%. Take `OCCc1cn(CC2CCCN(Cc3nccs3)C2)nn1` (stereo not drawn): the cytotoxicity at 70.5 h stood at 11.8%. For `CN(C)C1(CNc2nccc(-c3cnn(C)c3)n2)CCSC1` (stereo not drawn), the cytotoxicity at 70.5 h is -0.261%. Turning to `COCCN1C(=O)[C@H]2CC[C@@H]1CN(C(=O)CCc1n[nH]c(C)c1C)C2`, the cytotoxicity at 70.5 h is -13.9%. With `CCC[C@H]1CN(Cc2cscn2)C[C@@H]1NC(=O)C1(COC)CCC1`, the cytotoxicity at 70.5 h is -4.5%. As for `CCn1c(C2CCCN(S(=O)(=O)C3CC3)C2)nn(CCN(C)C)c1=O` (stereo not drawn), the cytotoxicity at 70.5 h was 0.856%. In the case of `CC(C)CN(Cc1ccccn1)Cc1ccccc1OCC(=O)O` it was -9.42%; in that of `CCC[C@H]1CN(S(=O)(=O)c2ccc(CC)s2)C[C@@H]1N`, 18.1%. With `Cc1ccc(-c2noc([C@H](N)CC(C)C)n2)nn1`, the cytotoxicity at 70.5 h stood at 7.92%.

On to `NC(=O)c1ccc(-n2ccnc2C2CC2)cc1N1CCCC1`, for which the cytotoxicity at 70.5 h was -3.29%. Regarding `COCc1noc(-c2ccc(N3CCCCC3CCCO)nc2)n1` (stereo not drawn), the cytotoxicity at 70.5 h was -3.48%. In the case of `CCCn1c(C)c(CC(=O)N[C@H](C)C(=O)OC)c2c1CC(C)(C)CC2=O`, the cytotoxicity at 70.5 h is -0.686%.

For the compound `CCCc1nnc(C(=O)N(C)Cc2ccc(OC)cc2)o1`, the cytotoxicity at 70.5 h is -2.69%. In the case of `Cc1ccccc1CN1CC[C@H]2C[C@H](C(=O)N(C)C)O[C@H]2C1`, the cytotoxicity at 70.5 h was -12.7%.

As to `COc1ccc(CN2CCC3(CC2)NC(=O)CC3c2cnn(C)c2)cc1` (stereo not drawn), the cytotoxicity at 70.5 h was -8.08%.

Turning to `CC(=O)N1CCC2(CCCN2Cc2cnn(C)c2)CC1`, the cytotoxicity at 70.5 h was -10%. Take `CCn1nc(C)cc1C(=O)N1C[C@H]2CCC[C@@]2(COc2ccccn2)C1`: the cytotoxicity at 70.5 h was -7.77%. On to `Cc1cc(CN2C[C@@H]3COC[C@]3(CNC(=O)c3ccsc3)C2)no1`, for which the cytotoxicity at 70.5 h is -8.24%. Turning to `O=C(C1CCOCC1)N1C[C@H]2CCC[C@@]2(COc2ccccn2)C1`, the cytotoxicity at 70.5 h is -11.3%. For `O=C(Nc1cnccn1)[C@@H]1C[C@H]2OCC[C@H]2N(Cc2ccsc2)C1`, the cytotoxicity at 70.5 h was -7.42%. As to `CN(C)C[C@]12COC[C@H]1CN(C(=O)Cc1ccc3c(c1)OCO3)C2`, the cytotoxicity at 70.5 h was -9.79%. `Cn1cc(CN2CCCC23CCN(C(=O)c2ccccn2)CC3)cn1`: the cytotoxicity at 70.5 h worked out at 18.2%. In the case of `Cn1cc(CN2CCCC23CCN(C(=O)c2ccncc2)CC3)cn1` it was 20.3%; in that of `c1ccn(Cc2nnc3n2CCCN(Cc2ccoc2)C3)c1`, 6.46%.

For the compound `O=C(N1CCCC1)N1CCC2(CCN(Cc3ccccn3)C2=O)C1` (stereo not drawn), the cytotoxicity at 70.5 h is 2.54%.

As for `CN1CCC(c2nnc3ccc(C(=O)NC4CCCC4)cn23)C1` (stereo not drawn), the cytotoxicity at 70.5 h amounted to 15%. In the case of `O=C(Cc1ccccc1)N1CCCC2(COCCN(CC3CC3)C2)C1` (stereo not drawn) it was -0.0192%; in that of `c1cnc(N2CCC3(CN(CC4CCOC4)C3)C2)nc1` (stereo not drawn), 24.1%; in that of `COCCN1C[C@@H]2[C@@H](OC)CCN(C(=O)Cc3ccccc3)[C@@H]2C1`, -1.17%. For `Cc1ncoc1C(=O)N1C[C@H]2CCC[C@@]2(COCc2cccnc2)C1` the value was 3.21%; for `Cc1oncc1C(=O)NCc1cc(=O)n2c(n1)CN(C(C)C)CCC2`, -4.07%; for `CCCN1CCCn2c(nc(CNC(=O)c3cnoc3C)cc2=O)C1`, 16.5%. For the compound `O=C(c1ccsc1)N1C[C@H]2CCC[C@@]2(COCc2cccnc2)C1`, the cytotoxicity at 70.5 h came out at 22.5%. Regarding `c1cnc(N2CCCC3(CCN(CC4CCOC4)CC3)C2)nc1` (stereo not drawn), the cytotoxicity at 70.5 h amounted to 19%. For `O=c1cc(Cn2cncn2)nc2n1CCCN(Cc1ccc(F)cc1)C2` the value was 0.75%; for `Cn1ccnc1C(=O)N1CCC2(CC1)CC(Oc1cccnc1)CO2` (stereo not drawn), -9.75%. As to `COCC1CN(CC2CC2)Cc2nn(CC3CC3)cc21` (stereo not drawn), the cytotoxicity at 70.5 h stood at 12.3%. Regarding `CN1CCOCC2(CCCN(C(=O)c3ccccc3F)C2)C1` (stereo not drawn), the cytotoxicity at 70.5 h was 13.4%. On to `CN1CC(=O)N(c2ccsc2)CC12CCN(C(=O)c1cccn1C)C2` (stereo not drawn), for which the cytotoxicity at 70.5 h is -5.46%. `CN1CC(=O)N(c2ccsc2)CC12CCN(C(=O)CC1CCCC1)C2` (stereo not drawn): the cytotoxicity at 70.5 h was -0.558%.

With `COCC1CC2(CCN(Cc3ccco3)CC2)CN1C(C)C` (stereo not drawn), the cytotoxicity at 70.5 h stood at 6.8%. As to `O=C(NC[C@]12COC[C@H]1CN(Cc1cccnc1)C2)c1ccsc1`, the cytotoxicity at 70.5 h turned out to be 11.5%. Take `O=C1CC(c2ccncc2)C2(CCN(Cc3ccc(F)cc3)CC2)N1` (stereo not drawn): the cytotoxicity at 70.5 h is -9.81%. In the case of `CN(C)CCOCC1CN(Cc2ccoc2)Cc2nnn(C)c21` (stereo not drawn), the cytotoxicity at 70.5 h was -11.2%. Take `Cn1nnc2c1C(COCc1ccccn1)CN(Cc1ccoc1)C2` (stereo not drawn): the cytotoxicity at 70.5 h was -12.1%. For the compound `O=C1CC(c2ccncc2)C2(CCN(CCc3ccccc3)CC2)N1` (stereo not drawn), the cytotoxicity at 70.5 h is -6.87%. As for `CO[C@@H]1CC[C@H]2[C@H]1OCCN2Cc1ccccn1`, the cytotoxicity at 70.5 h was determined as 18.3%.

Regarding `O=C1COC2(CCN(CC3CCOCC3)CC2)CN1Cc1ccccn1`, the cytotoxicity at 70.5 h is -0.458%. On to `CCN(C)c1ncnc2c1CCN(Cc1ccc(F)cc1)CC2`, for which the cytotoxicity at 70.5 h came to 19.9%. `Cc1nc(CN2CCO[C@H]3[C@@H](Oc4ccccn4)CC[C@@H]32)cs1`: the cytotoxicity at 70.5 h came out at 18.6%. As to `O=C(c1ccncc1)N1CCC2(CC1)CCN(Cc1ccccn1)C2=O`, the cytotoxicity at 70.5 h came to 15.2%.

As to `c1ccc(CO[C@@H]2CC[C@H]3[C@H]2OCCN3Cc2ccsc2)nc1`, the cytotoxicity at 70.5 h turned out to be 8.96%.

As for `Cc1noc(C)c1CN1CCO[C@H]2CN(Cc3cncn3C)C[C@H]21`, the cytotoxicity at 70.5 h was 19%. As to `Cc1noc(C)c1CN1CCO[C@H]2CN(Cc3ccc(F)cc3)C[C@H]21`, the cytotoxicity at 70.5 h is 0.623%. Consider `c1cnc(N2CCC3(CCN(CC4CCOC4)CC3)CC2)nc1` (stereo not drawn), for which the cytotoxicity at 70.5 h is 1.98%. Regarding `CN1CC(=O)N(c2cccc(F)c2)CC12CCN(CC1CCOCC1)C2` (stereo not drawn), the cytotoxicity at 70.5 h stood at 5.35%. For `Cc1ccc(N2CCC3(CCN(C(=O)c4ccccn4)CC3)CC2)nn1`, the cytotoxicity at 70.5 h is -5.97%. On to `CN1CCNC(=O)C12CCN(Cc1ccco1)CC2`, for which the cytotoxicity at 70.5 h is -8.79%. As to `COCC1CC2(CCN(Cc3ccncc3)CC2)CN1C(C)C` (stereo not drawn), the cytotoxicity at 70.5 h is -7.56%. As to `CCN(C)c1ncnc2c1CCN(Cc1ccncc1)CC2`, the cytotoxicity at 70.5 h was -0.527%. On to `Cc1ccoc1C(=O)N1Cc2c(CN3CCCCC3)nn(C)c2C1`, for which the cytotoxicity at 70.5 h was 0.575%.
